Reference: publication PMC3914206

Legend:
Assay type in all cases: binding
Settings in all cases: Compound Concentration 10 µM
panel of 442 kinases [1] = molecular target: T1, panel of 442 kinases (Homo sapiens, UniProt Q32MK0)
T1 construct: purchased KINOMEscan
T1 sequence (Q32MK0 1-819): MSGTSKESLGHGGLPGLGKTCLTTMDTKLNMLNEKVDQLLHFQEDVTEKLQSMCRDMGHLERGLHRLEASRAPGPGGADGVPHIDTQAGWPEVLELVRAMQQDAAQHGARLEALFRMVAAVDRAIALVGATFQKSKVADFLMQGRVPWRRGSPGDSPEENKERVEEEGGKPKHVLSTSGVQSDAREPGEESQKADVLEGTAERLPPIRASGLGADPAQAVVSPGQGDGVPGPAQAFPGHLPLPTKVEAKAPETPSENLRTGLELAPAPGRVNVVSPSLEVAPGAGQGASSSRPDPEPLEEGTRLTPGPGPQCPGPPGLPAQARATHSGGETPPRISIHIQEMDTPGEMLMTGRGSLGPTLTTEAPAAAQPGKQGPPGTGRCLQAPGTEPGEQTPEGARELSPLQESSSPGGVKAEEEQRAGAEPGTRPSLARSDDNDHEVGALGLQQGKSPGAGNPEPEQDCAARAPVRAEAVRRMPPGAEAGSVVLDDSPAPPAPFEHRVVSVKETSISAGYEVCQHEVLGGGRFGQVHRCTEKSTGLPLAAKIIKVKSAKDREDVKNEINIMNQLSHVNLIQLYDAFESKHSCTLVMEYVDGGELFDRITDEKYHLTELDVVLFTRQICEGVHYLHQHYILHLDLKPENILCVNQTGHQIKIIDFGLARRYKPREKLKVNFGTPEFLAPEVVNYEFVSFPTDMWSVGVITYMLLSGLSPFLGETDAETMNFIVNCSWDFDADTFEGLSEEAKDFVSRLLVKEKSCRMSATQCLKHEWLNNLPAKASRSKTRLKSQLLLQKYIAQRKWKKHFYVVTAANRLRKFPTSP
From the text: (§1) We assessed the selectivity of members of this scaffold using the KINOMEscan methodology across a near comprehensive panel of 442 kinases [[18,27]].

panel of 442 kinases [2] = molecular target: T2, panel of 442 kinases (Homo sapiens, UniProt P22694)
T2 construct: purchased KINOMEscan
From the text: as §1

panel of 442 kinases [3] = molecular target: T3, panel of 442 kinases (Homo sapiens, UniProt P00519, E255K)
T3 construct: purchased KINOMEscan
T3 sequence (P00519 whole entry E255K): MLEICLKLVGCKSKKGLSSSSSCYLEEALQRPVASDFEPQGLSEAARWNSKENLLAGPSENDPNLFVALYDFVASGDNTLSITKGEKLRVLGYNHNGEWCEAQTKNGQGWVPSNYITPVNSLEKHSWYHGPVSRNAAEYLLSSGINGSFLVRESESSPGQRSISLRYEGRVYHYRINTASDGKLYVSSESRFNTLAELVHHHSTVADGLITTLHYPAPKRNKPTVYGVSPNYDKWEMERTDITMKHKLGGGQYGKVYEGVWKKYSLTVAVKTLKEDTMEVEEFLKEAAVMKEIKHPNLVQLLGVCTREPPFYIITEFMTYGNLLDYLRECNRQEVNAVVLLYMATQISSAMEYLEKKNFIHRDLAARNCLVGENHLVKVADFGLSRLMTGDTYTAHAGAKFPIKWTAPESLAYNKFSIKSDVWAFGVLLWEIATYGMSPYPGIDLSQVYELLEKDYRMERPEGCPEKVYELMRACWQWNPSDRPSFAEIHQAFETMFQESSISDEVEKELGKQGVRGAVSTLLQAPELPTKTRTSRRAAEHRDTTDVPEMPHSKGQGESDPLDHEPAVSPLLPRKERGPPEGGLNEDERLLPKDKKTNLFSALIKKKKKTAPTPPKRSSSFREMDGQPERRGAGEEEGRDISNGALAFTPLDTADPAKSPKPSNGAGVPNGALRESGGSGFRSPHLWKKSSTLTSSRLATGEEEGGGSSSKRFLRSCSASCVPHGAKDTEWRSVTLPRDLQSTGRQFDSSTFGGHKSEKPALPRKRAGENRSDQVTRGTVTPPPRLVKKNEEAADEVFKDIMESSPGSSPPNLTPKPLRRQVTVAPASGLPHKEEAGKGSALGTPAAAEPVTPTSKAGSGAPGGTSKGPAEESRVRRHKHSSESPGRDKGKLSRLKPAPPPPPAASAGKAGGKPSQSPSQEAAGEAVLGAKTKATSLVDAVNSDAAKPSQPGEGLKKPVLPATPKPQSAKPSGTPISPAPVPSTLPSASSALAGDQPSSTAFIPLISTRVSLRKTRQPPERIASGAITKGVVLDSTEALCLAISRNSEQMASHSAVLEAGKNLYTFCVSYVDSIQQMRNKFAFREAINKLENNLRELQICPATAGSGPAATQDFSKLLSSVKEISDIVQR
From the text: as §1

Row | Structure (SMILES) | KINOMEscan: MLCK (panel of 442 kinases [1]) | KINOMEscan: PKAC-beta (panel of 442 kinases [2]) | KINOMEscan: ABL1(E255K)-phosphorylated (panel of 442 kinases [3])
1 | CCOc1cc(C(=O)N2CCC(N3CCN(C)CC3)CC2)ccc1Nc1ncc2c(n1)N(C1CCCC1)c1ccccc1C(=O)N2C [Compound 26] | 100 | 100 | 100
2 | COc1cc(C(=O)N2CCC(N3CCN(C)CC3)CC2)ccc1Nc1ncc2c(n1)N(C1CCCC1)c1ccccc1C(=O)N2C [Compound 25, 11-cyclopentyl-2-((2-methoxy-4-(4-(4-methylpiperazin-1-yl)piperidine-1-carbonyl)phenyl)amino)-5-methyl-5H-benzo[e]pyrimido[5,4-b][1,4]diazepin-6(11H)-one] | 100 | 100 | 92
3 | COc1cc(C(=O)N2CCC(N3CCN(C)CC3)CC2)ccc1Nc1ncc2c(n1)N(C)c1ccccc1C(=O)N2C [15 (LRRK2-IN-1)] | 100 | 100 | 80
